Earlier results, collected in patent US20080312310A1, “Compounds, Compositions and Methods” (Cytokinetics, Inc., priority 2002, published 2008).

Test system: A549 cells
Details: data provided by National Cancer Institute, Developmental Therapeutic Program

Row | SMILES | GI50 [nM]
1 | O=c1[nH]cc(F)c(=O)[nH]1 [5-fluorouracil] | 1000
2 | COc1cccc2c1C(=O)c1c(O)c3c(c(O)c1C2=O)C[C@@](O)(C(=O)CO)C[C@@H]3O[C@H]1C[C@H](N)[C@H](O)[C@H](C)O1 [doxorubicin] | 63
3 | NC(=O)NO [hydroxyurea] | 500000
4 | CC(=O)O[C@H]1C(=O)[C@@]2(C)[C@H]([C@H](OC(=O)c3ccccc3)[C@]3(O)C[C@H](OC(=O)[C@H](O)[C@@H](NC(=O)c4ccccc4)c4ccccc4)C(C)=C1C3(C)C)[C@]1(OC(C)=O)CO[C@@H]1C[C@@H]2O [paclitaxel] | 4
